For 27 compounds, IC50 and Kd results are on record in patent publication US20240025906A1 (NEURON23, INC., priority 2022, published 2024).

Experiment [1] deals with JAK1/TYK2 pSTAT5 (Tyr694/699) in THP-1 cell line. Description: IFNa-stimulated JAK1/TYK2 pSTAT5 (Tyr694/699) inhibition cellular assay, AlphaLISA. Format: cell-based. The following applies: Homo sapiens; THP-1 cells, IFNa-stimulated, AlphaLISA (Assay B); read-out: Cellular_THP1_IFNa-pSTATS_TYK2. The method in brief:
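THP-1, 2e4 cells/well, HBSS; cpd 1 h 37 °C (10000–0.04 nM final, 6-fold, 8 pt); IFNa 100 ng/mL added, 30 min; lyse, freeze −80 °C; pSTAT5 AlphaLISA, 615 nm; 4PL IC50, bottom fixed 0, slope −1.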

Experiment [2] concerns the target T1, TYK2 JH2 (Homo sapiens, UniProt P29597).
T1 construct: purchased DiscoverX (KINOMEscan KdELECT service); host or cells: E. coli BL21-derived (T7 phage display) or HEK-293
Description: TYK2 JH2 binding assay (KINOMEscan KdELECT competitive binding). The conditions noted are these: TYK2 JH2 domain, KINOMEscan KdELECT (Assay A); read-out: Biochemical TYK2_DiscoverX_JH2_BND_Kd. A digest of the protocol:
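The assay measures displacement of DNA- or phage-tagged TYK2 pseudokinase domain from an affinity resin; compound binding lowers the amount captured, read by qPCR. Incubation lasts 1 h at room temperature.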

The structures appear in SMILES notation.

T1 sequence (P29597 589-875 limits assumed): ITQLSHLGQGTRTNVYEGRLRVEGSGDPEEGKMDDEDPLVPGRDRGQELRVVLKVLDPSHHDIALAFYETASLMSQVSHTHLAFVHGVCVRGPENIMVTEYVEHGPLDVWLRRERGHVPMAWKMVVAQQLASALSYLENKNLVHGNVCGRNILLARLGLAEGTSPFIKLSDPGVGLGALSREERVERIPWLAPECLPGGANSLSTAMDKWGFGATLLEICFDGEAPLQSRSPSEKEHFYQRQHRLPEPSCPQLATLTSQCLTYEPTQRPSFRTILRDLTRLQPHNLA

Consider `CNc1ncc(C#Cc2ccc(CC(F)(F)F)cn2)c2cc(NC(=O)C3CC3)ncc12` [Example 660, N-(8-(methylamino)-5-((5-(2,2,2-trifluoroethyl)pyridin-2-yl)ethynyl)-2,7-naphthyridin-3-yl)cyclopropanecarboxamide], for which, in experiment [1], the IC50 was at most 0.5 µM. Besides, in experiment [2], the Kd is at most 0.1 µM.

Regarding `CNc1ncc(C#Cc2ccc(C#N)cn2)c2cc(NC(=O)C3CC3)ncc12` [Example 661, N-(5-((5-cyanopyridin-2-yl)ethynyl)-8-(methylamino)-2,7-naphthyridin-3-yl)cyclopropanecarboxamide], the IC50 in experiment [1] was at most 0.5 µM. Besides, the Kd in experiment [2] is at most 0.1 µM.

Take `CNc1ncc(C#Cc2ccc(C(C)(C)O)cn2)c2cc(NC(=O)C3CC3)ncc12` [Example 662, N-(5-((5-(2-hydroxypropan-2-yl)pyridin-2-yl)ethynyl)-8-(methylamino)-2,7-naphthyridin-3-yl)cyclopropanecarboxamide]: the IC50 in experiment [1] was at most 0.5 µM. Besides, the Kd in experiment [2] was at most 0.1 µM.

As for `CNc1ncc(C#Cc2cc(C)c(OC)cn2)c2cc(NC(=O)C3CC3)ncc12` [Example 663, N-(5-((5-methoxy-4-methylpyridin-2-yl)ethynyl)-8-(methylamino)-2,7-naphthyridin-3-yl)cyclopropanecarboxamide], in experiment [1], the IC50 was at most 0.5 µM. For the same compound, the Kd in experiment [2] was at most 0.1 µM.

Consider `CNc1ncc(C#Cc2ncc(OC)cc2C)c2cc(NC(=O)C3CC3)ncc12` [Example 664, N-(5-((5-methoxy-3-methylpyridin-2-yl)ethynyl)-8-(methylamino)-2,7-naphthyridin-3-yl)cyclopropanecarboxamide], for which, in experiment [1], the IC50 was at most 0.5 µM. In experiment [2], the Kd is at most 0.1 µM.

`CNc1ncc(C#Cc2ncc(OC)cc2F)c2cc(NC(=O)C3CC3)ncc12` [Example 665, N-(5-((3-fluoro-5-methoxypyridin-2-yl)ethynyl)-8-(methylamino)-2,7-naphthyridin-3-yl)cyclopropanecarboxamide]: the IC50 in experiment [1] was at most 0.5 µM. Further, in experiment [2], the Kd was at most 0.1 µM.

Consider `CNc1ncc(C#Cc2ccc3occc3n2)c2cc(NC(=O)C3CC3)ncc12` [Example 666, N-(5-(furo[3,2-b]pyridin-5-ylethynyl)-8-(methylamino)-2,7-naphthyridin-3-yl)cyclopropanecarboxamide], for which the IC50 in experiment [1] was at most 0.5 µM. In addition, the Kd in experiment [2] was at most 0.1 µM.

`CNc1ncc(C#Cc2cc3ccoc3cn2)c2cc(NC(=O)C3CC3)ncc12` [Example 667, N-(5-(furo[2,3-c]pyridin-5-ylethynyl)-8-(methylamino)-2,7-naphthyridin-3-yl)cyclopropanecarboxamide]: the IC50 in experiment [1] is at most 0.5 µM. For the same compound, the Kd in experiment [2] is at most 0.1 µM.

For `CNc1ncc(C#Cc2ccc3nc(CO)sc3c2)c2cc(NC(=O)C3CC3)ncc12` [Example 668, N-(5-((2-(hydroxymethyl)benzo[d]thiazol-6-yl)ethynyl)-8-(methylamino)-2,7-naphthyridin-3-yl)cyclopropanecarboxamide], in experiment [1], the IC50 is at most 0.5 µM. In experiment [2], the Kd is at most 0.1 µM.

`CNc1ncc(C#Cc2ccncc2CO)c2cc(NC(=O)C3CC3)ncc12` [Example 669, N-(5-((3-(hydroxymethyl)pyridin-4-yl)ethynyl)-8-(methylamino)-2,7-naphthyridin-3-yl)cyclopropanecarboxamide]: the IC50 in experiment [1] was at most 0.5 µM. Also, the Kd in experiment [2] is at most 0.1 µM.

For the compound `CNc1ncc(C#Cc2ccc(NC(C)=O)cc2)c2cc(NC(=O)C3CC3)ncc12` [Example 670, N-(5-((4-acetamidophenyl)ethynyl)-8-(methylamino)-2,7-naphthyridin-3-yl)cyclopropanecarboxamide], the IC50 in experiment [1] is at most 0.5 µM. Further, the Kd in experiment [2] was at most 0.1 µM.

On to `CNc1ncc(C#Cc2ccc(-n3ccccc3=O)cc2)c2cc(NC(=O)C3CC3)ncc12` [Example 671, N-(8-(methylamino)-5-((4-(2-oxopyridin-1(2H)-yl)phenyl)ethynyl)-2,7-naphthyridin-3-yl)cyclopropanecarboxamide], for which the IC50 in experiment [1] was at most 0.5 µM. Moreover, the Kd in experiment [2] was at most 0.1 µM.

Take `CNC(=O)c1ccc(C#Cc2cnc(NC)c3cnc(NC(=O)C4CC4)cc23)cc1` [Example 672, 4-((6-(cyclopropanecarboxamido)-1-(methylamino)-2,7-naphthyridin-4-yl)ethynyl)-N-methylbenzamide]: the IC50 in experiment [1] is at most 0.5 µM. Moreover, the Kd in experiment [2] was at most 0.1 µM.

In the case of `CNc1ncc(C#Cc2ccc(S(=O)(=O)NC)cc2)c2cc(NC(=O)C3CC3)ncc12` [Example 673, N-(8-(methylamino)-5-((4-(N-methylsulfamoyl)phenyl)ethynyl)-2,7-naphthyridin-3-yl)cyclopropanecarboxamide], the IC50 in experiment [1] was at most 0.5 µM. Also, in experiment [2], the Kd was at most 0.1 µM.

Regarding `CNc1ncc(C#Cc2ccc(N3CCCC3=O)cc2)c2cc(NC(=O)C3CC3)ncc12` [Example 674, N-(8-(methylamino)-5-((4-(2-oxopyrrolidin-1-yl)phenyl)ethynyl)-2,7-naphthyridin-3-yl)cyclopropanecarboxamide], the IC50 in experiment [1] was at most 0.5 µM. Also, the Kd in experiment [2] is at most 0.1 µM.

Regarding `CNc1ncc(C#Cc2ccc(N3CCOC3=O)cc2)c2cc(NC(=O)C3CC3)ncc12` [Example 675, N-(8-(methylamino)-5-((4-(2-oxooxazolidin-3-yl)phenyl)ethynyl)-2,7-naphthyridin-3-yl)cyclopropanecarboxamide], in experiment [1], the IC50 was at most 0.5 µM. Also, the Kd in experiment [2] was at most 0.1 µM.

Consider `CNc1ncc(C#Cc2nc3ccc(OC)cn3n2)c2cc(NC(=O)C3CC3)ncc12` [Example 676, N-(5-((6-methoxy-[1,2,4]triazolo[1,5-a]pyridin-2-yl)ethynyl)-8-(methylamino)-2,7-naphthyridin-3-yl)cyclopropanecarboxamide], for which the IC50 in experiment [1] was at most 0.5 µM. The Kd in experiment [2] was at most 0.1 µM.

Turning to `CNc1ncc(C#Cc2ccc(OCC3COC3)cc2)c2cc(NC(=O)C3CC3)ncc12` [Example 677, N-(8-(methylamino)-5-((4-(oxetan-3-ylmethoxy)phenyl)ethynyl)-2,7-naphthyridin-3-yl)cyclopropanecarboxamide], the IC50 in experiment [1] is at most 0.5 µM. The Kd in experiment [2] was at most 0.1 µM.

`CNc1ncc(C#Cc2ccc(OCC3COC3)cn2)c2cc(NC(=O)C3CC3)ncc12` [Example 678, N-(8-(methylamino)-5-((5-(oxetan-3-ylmethoxy)pyridin-2-yl)ethynyl)-2,7-naphthyridin-3-yl)cyclopropanecarboxamide]: in experiment [1], the IC50 was at most 0.5 µM. Further, in experiment [2], the Kd is at most 0.1 µM.

In the case of `CNc1ncc(C#Cc2ccc(OCC3CN(C(C)=O)C3)cc2)c2cc(NC(=O)C3CC3)ncc12` [Example 679, N-(5-((4-((1-acetylazetidin-3-yl)methoxy)phenyl)ethynyl)-8-(methylamino)-2,7-naphthyridin-3-yl)cyclopropanecarboxamide], the IC50 in experiment [1] is at most 0.5 µM. In addition, in experiment [2], the Kd is at most 0.1 µM.

Turning to `CNc1ncc(C#Cc2cc3ccccn3n2)c2cc(NC(=O)C3CC3)ncc12` [Example 680, N-(8-(methylamino)-5-(pyrazolo[1,5-a]pyridin-2-ylethynyl)-2,7-naphthyridin-3-yl)cyclopropanecarboxamide], the IC50 in experiment [1] was at most 0.5 µM. Besides, the Kd in experiment [2] is at most 0.1 µM.

Turning to `CNc1ncc(C#Cc2ccc3nnn(C(C)C)c3c2)c2cc(NC(=O)C3CC3)ncc12` [Example 681, N-(5-((1-isopropyl-1H-benzo[d][1,2,3]triazol-6-yl)ethynyl)-8-(methylimino)-2,7-naphthyridin-3-yl)cyclopropanecarboxamide], the IC50 in experiment [1] was at most 0.5 µM. Besides, the Kd in experiment [2] was at most 0.1 µM.

As for `CNc1ncc(C#Cc2ccc3nnn(CCOC)c3c2)c2cc(NC(=O)C3CC3)ncc12` [Example 682, N-(5-((1-(2-methoxyethyl)-1H-benzo[d][1,2,3]triazol-6-yl)ethynyl)-8-(methylamino)-2,7-naphthyridin-3-yl)cyclopropanecarboxamide], the IC50 in experiment [1] is at most 0.5 µM. For the same compound, in experiment [2], the Kd is at most 0.1 µM.

Take `CCn1nnc2ccc(C#Cc3cnc(NC)c4cnc(NC(=O)C5CC5)cc34)cc21` [Example 683, N-(5-((1-ethyl-1H-benzo[d][1,2,3]triazol-6-yl)ethynyl)-8-(methylamino)-2,7-naphthyridin-3-yl)cyclopropanecarboxamide]: the IC50 in experiment [1] is at most 0.5 µM. In experiment [2], the Kd was at most 0.1 µM.

As to `CNc1ncc(C#Cc2ccc3nnn(CC(C)(C)O)c3c2)c2cc(NC(=O)C3CC3)ncc12` [Example 684, N-(5-((1-(2-hydroxy-2-methylpropyl)-1H-benzo[d][1,2,3]triazol-6-yl)ethynyl)-8-(methylamino)-2,7-naphthyridin-3-yl)cyclopropanecarboxamide], the IC50 in experiment [1] is at most 0.5 µM. Further, the Kd in experiment [2] is at most 0.1 µM.

As for `CNc1ncc(C#Cc2cc3c(cc2F)nnn3C)c2cc(NC(=O)C3CC3)ncc12` [Example 685, N-(5-((5-fluoro-1-methyl-1H-benzo[d][1,2,3]triazol-6-yl)ethynyl)-8-(methylamino)-2,7-naphthyridin-3-yl)cyclopropanecarboxamide], in experiment [1], the IC50 was at most 0.5 µM. The Kd in experiment [2] is at most 0.1 µM.

As to `CNc1ncc(C#Cc2ccc3nnn(CCC#N)c3c2)c2cc(NC(=O)C3CC3)ncc12` [Example 686, N-(5-((1-(2-cyanoethyl)-1H-benzo[d][1,2,3]triazol-6-yl)ethynyl)-8-(methylamino)-2,7-naphthyridin-3-yl)cyclopropanecarboxamide], the IC50 in experiment [1] is at most 0.5 µM. Moreover, the Kd in experiment [2] is at most 0.1 µM.
